Here are results for 28 molecules from patent US20110166121A1 (LG LIFE SCIENCES LTD., priority 2008, published 2011).

In this test the test system is Human platelet aggregation caused by ADP. The test can be described thus: Inhibition of ADP-induced platelet aggregation (Mimic-human PRP). The class given is cell-based. To be noted: 20 μM ADP, human platelet concentrate diluted with PPP, absorption at 595 nm. The procedure, abridged: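 Human PRP diluted with PPP to 3–4×10^8 platelets/mL was preincubated 20 min at room temperature with compound (0.01–30 μM, DMSO), then stimulated with 20 μM ADP. Aggregation read as A595 increase at 3 min versus 0 and 20 μM ADP controls; Ki from sigmoidal non-linear regression.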

As usually defined, the Ki is the equilibrium dissociation constant of an inhibitor or competing ligand from its target. Low values mean tighter binding, high ones weaker binding. Consider `CCCc1cc2c(N3CCn4c(nnc4C(F)(F)F)C3)nc(N3CC[C@H](NC(=O)NC4CCCC4)C3)nc2s1` [Example 9-15, 1-Cyclopentyl-3-{(S)-1-[6-propyl-4-(3-trifluoromethyl-5,6-dihydro-8H-[1,2,4]triazolo[4,3-a]pyrazin-7-yl)-thieno[2,3-d]pyrimidin-2-yl]-pyrrolidin-3-yl}-urea], for which the Ki is 42 nM.
As for `CCCc1cc2c(N3CCn4c(nnc4C(F)(F)F)C3)nc(N3CC[C@H](NC(=O)Nc4ccc(F)c(F)c4)C3)nc2s1` [Example 9-16, 1-(3,4-Difluoro-phenyl)-3-{(S)-1-[6-propyl-4-(3-trifluoromethyl-5,6-dihydro-8H-[1,2,4]triazolo[4,3-a]pyrazin-7-yl)-thieno[2,3-d]pyrimidin-2-yl]-pyrrolidin-3-yl}-urea], the figure is 880 nM; as for `CCCc1cc2c(N3CCn4c(nnc4C(F)(F)F)C3)nc(N3CC[C@H](NC(=O)NS(=O)(=O)c4ccc(Cl)s4)C3)nc2s1` [Example 9-17], 19 nM; as for `CCCc1cc2c(N3CCn4c(nnc4C(F)(F)F)C3)nc(N3CC[C@H](NC(=O)OC)C3)nc2s1` [Example 9-18, {(S)-1-[6-Propyl-4-(3-trifluoromethyl-5,6-dihydro-8H-[1,2,4]triazolo[4,3-a]pyrazin-7-yl)-thieno[2,3-d]pyrimidin-2-yl]-pyrrolidin-3-yl}-carbamic acid methyl ester], 10 nM.
With `CCCc1cc2c(N3CCn4c(nnc4C(F)(F)F)C3)nc(OCCNC(=O)OC)nc2s1` [Example 9-19, {2-[6-Propyl-4-(3-trifluoromethyl-5,6-dihydro-8H-[1,2,4]triazolo[4,3-a]pyrazin-7-yl)-thieno[2,3-d]pyrimidin-2-yloxy]-ethyl}-carbamic acid methyl ester] the figure was 3 nM; with `CCCc1cc2c(N3CCn4c(nnc4C(F)(F)F)C3)nc(N3CC[C@@H](NC(=O)OC)C3)nc2s1` [Example 9-20, {(R)-1-[6-Propyl-4-(3-trifluoromethyl-5,6-dihydro-8H-[1,2,4]triazolo[4,3-a]pyrazin-7-yl)-thieno[2,3-d]pyrimidin-2-yl]-pyrrolidin-3-yl}-carbamic acid methyl ester], 6 nM.
With `CCCc1cc2c(N3CCn4c(nnc4C(F)(F)F)C3)nc(N3CC[C@H](NC=O)C3)nc2s1` [Example 9-21, N-{(S)-1-[6-Propyl-4-(3-trifluoromethyl-5,6-dihydro-8H-[1,2,4]triazolo[4,3-a]pyrazin-7-yl)-thieno[2,3-d]pyrimidin-2-yl]-pyrrolidin-3-yl}-formamide] the figure was 6 nM.
For `CCCc1cc2c(N3CCn4c(nnc4C(F)(F)F)C3)nc(N3CC[C@@H](NC=O)C3)nc2s1` [Example 9-22, N-{(R)-1-[6-Propyl-4-(3-trifluoromethyl-5,6-dihydro-8H-[1,2,4]triazolo[4,3-a]pyrazin-7-yl)-thieno[2,3-d]pyrimidin-2-yl]-pyrrolidin-3-yl}-formamide], the affinity corresponds to a Ki of 15 nM.
As for `CCCc1cc2c(N3CCn4c(nnc4C(F)(F)F)C3)nc(OCCNC=O)nc2s1` [Example 9-23, N-{2-[6-Propyl-4-(3-trifluoromethyl-5,6-dihydro-8H-[1,2,4]triazolo[4,3-a]pyrazin-7-yl)-thieno[2,3-d]pyrimidin-2-yloxy]-ethyl}-formamide], the figure is 3 nM; as for `CCCc1cc2c(N3CCn4c(nnc4C(F)(F)F)C3)nc(N3CC[C@H](N(C)C(C)=O)C3)nc2s1` [Example 9-24, N-Methyl-N-{(S)-1-[6-propyl-4-(3-trifluoromethyl-5,6-dihydro-8H-[1,2,4]triazolo[4,3-a]pyrazin-7-yl)-thieno[2,3-d]pyrimidin-2-yl]-pyrrolidin-3-yl}-acetamide], 310 nM.
With `CCCc1cc2c(N3CCn4c(nnc4C(F)(F)F)C3)nc(OCCNC(=O)NC)nc2s1` [Example 9-25, 1-Methyl-3-{2-[6-propyl-4-(3-trifluoromethyl-5,6-dihydro-8H-[1,2,4]triazolo[4,3-a]pyrazin-7-yl)-thieno[2,3-d]pyrimidin-2-yloxy]-ethyl}-urea] the figure was 5.7 nM; with `CCCc1cc2c(N3CCn4c(nnc4C(F)(F)F)C3)nc(OCCNC(=O)N3CCCC3)nc2s1` [Example 9-26, Pyrrolidine-1-carboxylic Acid {2-[6-propyl-4-(3-trifluoromethyl-5,6-dihydro-8H-[1,2,4]triazolo[4,3-a]pyrazin-7-yl)-thieno[2,3-d]pyrimidin-2-yloxy]-ethyl}-amide], 16 nM.
As for `CCCc1cc2c(N3CCn4c(nnc4C(F)(F)F)C3)nc(OCCNC(N)=O)nc2s1` [Example 9-27, {2-[6-Propyl-4-(3-trifluoromethyl-5,6-dihydro-8H-[1,2,4]triazolo[4,3-a]pyrazin-7-yl)-thieno[2,3-d]pyrimidin-2-yloxy]-ethyl}-urea], the figure is 6.5 nM; as for `CCCc1cc2c(N3CCn4c(nnc4C(F)(F)F)C3)nc(N3CC(O)C(NC=O)C3)nc2s1` (stereo not shown) [Example 9-28, N-{4-Hydroxy-1-[6-propyl-4-(3-trifluoromethyl-5,6-dihydro-8H-[1,2,4]triazolo[4,3-a]pyrazin-7-yl)-thieno[2,3-d]pyrimidin-2-yl]-pyrrolidin-3-yl}-formamide], 0.16 nM.
In turn, `CCCc1cc2c(N3CCn4c(nnc4C(F)(F)F)C3)nc(N3CC(Cl)C(NC(C)=O)C3)nc2s1` (stereo not shown) [Example 9-29, N-{4-Chloro-1-[6-propyl-4-(3-trifluoromethyl-5,6-dihydro-8H-[1,2,4]triazolo[4,3-a]pyrazin-7-yl)-thieno[2,3-d]pyrimidin-2-yl]-pyrrolidin-3-yl}-acetamide] registered a Ki of 2.2 nM.
As for `CCCc1cc2c(N3CCn4c(nnc4C(F)(F)F)C3)nc(N3CC4N=C(C)OC4C3)nc2s1` (stereo not shown) [Example 9-30, 7-[2-(2-Methyl-3a,4,6,6a-tetrahydro-pyrrolo[3,4-d]oxazol-5-yl)-6-propyl-thieno[2,3-d]pyrimidin-4-yl]-3-trifluoromethyl-5,6,7,8-tetrahydro-[1,2,4]triazolo[4,3-a]pyrazine], the figure is 0.3 nM; as for `CCCc1cc2c(N3CCn4c(nnc4C(F)(F)F)C3)nc(NCCNC=O)nc2s1` [Example 9-31, N-{2-[6-Propyl-4-(3-trifluoromethyl-5,6-dihydro-8H-[1,2,4]triazolo[4,3-a]pyrazin-7-yl)-thieno[2,3-d]pyrimidin-2-ylamino]-ethyl}-formamide], 87 nM.
With `CCCc1cc2c(N3CCn4c(nnc4C(F)(F)F)C3)nc(NCCNC(=O)OC)nc2s1` [Example 9-32, {2-[6-Propyl-4-(3-trifluoromethyl-5,6-dihydro-8H-[1,2,4]triazolo[4,3-a]pyrazin-7-yl)-thieno[2,3-d]pyrimidin-2-ylamino]-ethyl}-carbamic acid methyl ester] the figure was 29 nM.
As for `CCCc1cc2c(N3CCn4c(nnc4C(F)(F)F)C3)nc(N3CCNC3=O)nc2s1` [Example 9-33, 1-[6-Propyl-4-(3-trifluoromethyl-5,6-dihydro-8H-[1,2,4]triazolo[4,3-a]pyrazin-7-yl)-thieno[2,3-d]pyrimidin-2-yl]-imidazolidin-2-one], the figure is 41 nM.
`CCCc1cc2c(N3CCn4c(nnc4C(F)(F)F)C3)nc(N3CC4N=COC4C3)nc2s1` (stereo not shown) [Example 9-34, 7-[6-Propyl-2-(3a,4,6,6a-tetrahydro-pyrrolo[3,4-d]oxazol-5-yl)-thieno[2,3-d]pyrimidin-4-yl]-3-trifluoromethyl-5,6,7,8-tetrahydro-[1,2,4]triazolo[4,3-a]pyrazine]: the affinity, expressed as Ki, was 15 nM.
As for `CCCc1cc2c(N3CCn4c(nnc4C(F)(F)F)C3)nc(OC)nc2s1` [Example 9-35, 7-(2-Methoxy-6-propyl-thieno[2,3-d]pyrimidin-4-yl)-3-trifluoromethyl-5,6,7,8-tetrahydro-[1,2,4]triazolo[4,3-a]pyrazine], the figure is 220 nM; as for `CCCc1cc2c(N3CCn4c(nnc4C(F)(F)F)C3)nc(OCC)nc2s1` [Example 9-36, 7-(2-Ethoxy-6-propyl-thieno[2,3-d]pyrimidin-4-yl)-3-trifluoromethyl-5,6,7,8-tetrahydro-[1,2,4]triazolo[4,3-a]pyrazine], 170 nM.
As for `CCCc1cc2c(N3CCn4c(nnc4C(F)(F)F)C3)nc(N=[N+]=[N-])nc2s1` [Example 9-37, 7-(2-Azido-6-propyl-thieno[2,3-d]pyrimidin-4-yl)-3-trifluoromethyl-5,6,7,8-tetrahydro-[1,2,4]triazolo[4,3-a]pyrazine], the figure is 200 nM.
With `CCCc1cc2c(N3CCn4c(nnc4C(F)(F)F)C3)nc(N)nc2s1` [Example 9-38, 6-Propyl-4-(3-trifluoromethyl-5,6-dihydro-8H-[1,2,4]triazolo[4,3-a]pyrazin-7-yl)-thieno[2,3-d]pyrimidin-2-ylamine] the figure was 49 nM.
Regarding `CCCc1cc2c(N3CCn4c(nnc4C(F)(F)F)C3)nc(N(C)CCNC(C)=O)nc2s1` [Example 9-40, N-(2-{Methyl-[6-propyl-4-(3-trifluoromethyl-5,6-dihydro-8H-[1,2,4]triazolo[4,3-a]pyrazin-7-yl)-thieno[2,3-d]pyrimidin-2-yl]-amino}-ethyl)-acetamide], the Ki worked out at 22 nM.
With `CCCc1cc2c(N3CCn4c(nnc4C(F)(F)F)C3)nc(N(C)CCNC=O)nc2s1` [Example 9-41, N-(2-{Methyl-[6-propyl-4-(3-trifluoromethyl-5,6-dihydro-8H-[1,2,4]triazolo[4,3-a]pyrazin-7-yl)-thieno[2,3-d]pyrimidin-2-yl]-amino}-ethyl)-formamide] the figure was 37 nM.
As for `CCCc1cc2c(N3CCn4c(nnc4C(F)(F)F)C3)nc(N(C)CCNC(=O)OC)nc2s1` [Example 9-42, (2-{Methyl-[6-propyl-4-(3-trifluoromethyl-5,6-dihydro-8H-[1,2,4]triazolo[4,3-a]pyrazin-7-yl)-thieno[2,3-d]pyrimidin-2-yl]-amino}-ethyl)-carbamic acid methyl ester], the figure is 27 nM; as for `CCCc1cc2c(N3CCn4c(nnc4C(F)(F)F)C3)nc(-n3cncn3)nc2s1` [Example 9-43, 7-(6-Propyl-2-[1,2,4]triazol-1-yl-thieno[2,3-d]pyrimidin-4-yl)-3-trifluoromethyl-5,6,7,8-tetrahydro-[1,2,4]triazolo[4,3-a]pyrazine], 330 nM.
